Several values for one entry are separate records, joined by “and”; a condition that tells them apart may be missing. Identical values can stand only once.
Columns and labels:
Type in all cases: binding
CDK7 = CDK7 (Homo sapiens, UniProt P50613); assay: Intracellular residence time by cellular washout, CDK7; settings: for CDK7: Panel B
Description: However, residence times for this and many of the other CDKi’s in our panel have not been reported in cell-free or cellular contexts. […] This condition was selected to ensure adequate target occupancy prior to compound washout. Residence time was then evaluated by a rapid compound washout procedure, followed by addition of energy transfer probe 1. Under these conditions, the rate of the energy transfer signal increase serves as a direct proxy for the loss of the target-CDKi interaction[18],[56],[57].
Residence time was qualitatively assessed via a cellular washout approach, where delayed energy probe association is used as an indirect measurement for the durability of target/compound engagement. […] After 2 h of incubation at 37 °C, the medium was aspirated from the cells and replaced with fresh OptiMEM containing NanoBRET NanoGlo Substrate and Extracellular NanoLuc Inhibitor. […] Occupancy values were plotted as a function of time.
Supplementary Figure 22. […] Residence […]
time was qualitatively assessed by cellular washout as described in the method details and compared to association of energy transfer probe in cells treated with DMSO vehicle. […]
engagement at CDK6 and kinetic selectivity for CDK6 compared to CDK2 and CDK7. BRET ratios were normalized between the maximum BRET value vs BRET value in the absence of tracer. Kinetic traces and individual points are mean of 3 independent experiments ± S.E.M (n = 3). Source data are provided as a […]

CDK2 = CDK2 (Homo sapiens, UniProt P24941); assay: Intracellular residence time by cellular washout, CDK2; settings: for CDK2 occupancy after compound washout (%): Panel B;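 on all read-outs here: NanoBRET live-cell washout assay after 2 h compound pretreatment at 37 °C, rising energy-transfer probe signal tracks loss of CDK2 engagement, compared against DMSO vehicle cells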
CDK6 = CDK6 (Homo sapiens, UniProt Q00534); assay: Intracellular residence time by cellular washout, CDK6; settings: Panel B;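 further: NanoBRET cellular washout in live cells: compound preincubated 2 h at 37 °C, then removed, energy transfer probe association tracked over time versus DMSO vehicle, rising BRET indicating target release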
CDK6, sequence (Q00534 whole entry): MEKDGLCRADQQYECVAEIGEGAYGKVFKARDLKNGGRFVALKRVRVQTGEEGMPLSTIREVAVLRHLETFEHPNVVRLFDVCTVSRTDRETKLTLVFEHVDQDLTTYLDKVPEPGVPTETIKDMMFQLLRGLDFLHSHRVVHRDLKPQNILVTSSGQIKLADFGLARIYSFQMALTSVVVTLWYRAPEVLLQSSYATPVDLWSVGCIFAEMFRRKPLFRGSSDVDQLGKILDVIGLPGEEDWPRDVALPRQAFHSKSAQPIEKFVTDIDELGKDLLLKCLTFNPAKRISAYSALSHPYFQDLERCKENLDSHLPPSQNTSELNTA
CDK6, sequence (P24385 whole entry partner): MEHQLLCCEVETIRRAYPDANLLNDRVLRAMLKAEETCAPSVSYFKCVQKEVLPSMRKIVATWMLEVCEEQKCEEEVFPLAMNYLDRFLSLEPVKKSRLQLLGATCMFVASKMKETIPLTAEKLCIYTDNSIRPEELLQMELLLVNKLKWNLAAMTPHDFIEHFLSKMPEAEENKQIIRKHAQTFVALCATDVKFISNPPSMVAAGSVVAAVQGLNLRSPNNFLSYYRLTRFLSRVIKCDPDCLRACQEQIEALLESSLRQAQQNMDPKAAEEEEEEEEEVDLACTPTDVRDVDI

[1] = Time (Min) 32.9743, listed as RGB-286638
[2] = Time (Min) 266.996, listed as RGB-286638

CDK7, sequence (P50613 whole entry): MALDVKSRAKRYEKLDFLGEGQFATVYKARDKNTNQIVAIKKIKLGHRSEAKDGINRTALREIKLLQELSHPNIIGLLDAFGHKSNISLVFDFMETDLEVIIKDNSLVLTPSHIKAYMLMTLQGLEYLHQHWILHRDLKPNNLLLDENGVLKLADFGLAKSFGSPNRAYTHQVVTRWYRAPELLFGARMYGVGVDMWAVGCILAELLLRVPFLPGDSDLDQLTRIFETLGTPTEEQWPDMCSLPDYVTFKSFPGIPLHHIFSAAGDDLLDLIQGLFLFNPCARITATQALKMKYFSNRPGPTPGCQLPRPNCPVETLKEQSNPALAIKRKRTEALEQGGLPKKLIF

COCCN1CCN(Cc2ccc(-c3n[nH]c4c3C(=O)c3c(NC(=O)NN5CCOCC5)cccc3-4)cc2)CC1 [RGB286638]
CDK7 (CDK7; Time (Min) 2.97013): 63.5317 and 37.2109 and 59.6726 | CDK7 (CDK7; Time (Min) 5.97045): 70.1207 and 47.8912 and 70.0893 | CDK7 (CDK7; Time (Min) 8.97078): 76.2242 and 55.3742 and 82.1429 | CDK7 (CDK7; Time (Min) 11.9714): 80.0388 and 60.068 and 80.8036 | CDK7 (CDK7; Time (Min) 14.9718): 83.1599 and 63.8775 and 88.244 | CDK7 (CDK7; Time (Min) 17.9723): 84.339 and 67.0068 and 93.006 | CDK7 (CDK7; Time (Min) 20.9723): 86.0036 and 69.5238 and 91.8155 | CDK7 (CDK7; Time (Min) 23.9731): 87.5988 and 70.4762 and 91.0714 | CDK7 (CDK7; Time (Min) 26.9737): 87.252 and 72.2449 and 92.2619 | CDK7 (CDK7; Time (Min) 29.9742): 89.6796 and 72.7211 and 93.4524 | CDK7 (CDK7; Time (Min) 32.9743): 74.1497 | CDK7 (CDK7; [1]): 87.9456 and 99.1071 | CDK7 (CDK7; Time (Min) 35.9749): 89.8183 and 75.5102 and 100.298 | CDK7 (CDK7; Time (Min) 38.9753): 90.3731 and 75.102 and 97.619 | CDK7 (CDK7; Time (Min) 41.9753): 91.4829 | CDK7 (CDK7; Time (Min) 236.996): 85.5181 and 68.5714 and 62.6488 | CDK7 (CDK7; Time (Min) 239.996): 81.0792 and 69.4558 and 75.1488 | CDK7 (CDK7; Time (Min) 242.996): 82.6744 and 69.7959 and 76.3393 | CDK7 (CDK7; Time (Min) 245.996): 82.397 and 69.0476 and 68.4524 | CDK7 (CDK7; Time (Min) 248.996): 81.4954 and 70.068 and 77.0833 | CDK7 (CDK7; Time (Min) 251.996): 82.3276 and 68.6395 and 82.7381 | CDK7 (CDK7; Time (Min) 254.996): 80.5243 and 67.551 and 74.1071 | CDK7 (CDK7; Time (Min) 257.996): 85.2407 and 70.4082 and 62.2024 | CDK7 (CDK7; Time (Min) 260.996): 83.0212 and 68.0272 and 80.6548 | CDK7 (CDK7; Time (Min) 263.996): 83.8535 and 68.6395 and 70.6845 | CDK7 (CDK7; Time (Min) 266.996): 68.0272 | CDK7 (CDK7; [2]): 83.7842 and 91.369 | CDK7 (CDK7; Time (Min) 269.996): 81.2873 and 68.9116 and 72.9167 | CDK7 (CDK7; Time (Min) 272.996): 80.8711 and 70.3401 and 74.8512 | CDK7 (CDK7; Time (Min) 275.996): 78.9985 and 67.0748 and 80.0595 | CDK7 (CDK7; Time (Min) 278.996): 80.5243 and 67.8231 and 80.6548 | CDK7 (CDK7; Time (Min) 281.996): 80.1776 and 69.4558 and 75 | CDK7 (CDK7; Time (Min) 284.996): 78.513 and 68.5034 and 75.2976 | CDK7 (CDK7; Time (Min) 287.996): 79.8308 and 68.2993 and 76.6369 | CDK7 (CDK7; Time (Min) 290.996): 80.5243 and 69.932 and 91.2202 | CDK7 (CDK7; Time (Min) 293.996): 78.9985 and 67.9592 and 82.2917 | CDK7 occupancy after 2 h of analysis following compound washout (CDK7; live cells, probe 1 at 1 µM): fully dissociated | CDK2 occupancy after compound washout (%) (CDK2; Time (Min) 0): 86.242 and 90.073 and 94.3307 | CDK2 occupancy after compound washout (%) (CDK2; Time (Min) 2.97013): 79.5117 and 80.9002 and 88.1102 | CDK2 occupancy after compound washout (%) (CDK2; Time (Min) 5.97045): 73.673 and 73.2847 and 82.0472 | CDK2 occupancy after compound washout (%) (CDK2; Time (Min) 8.97078): 68.5138 and 66.4964 and 75.5906 | CDK2 occupancy after compound washout (%) (CDK2; Time (Min) 11.9714): 64.0977 and 61.0706 and 70.5249 | CDK2 occupancy after compound washout (%) (CDK2; Time (Min) 14.9718): 59.9363 and 55.5961 and 65.5381 | CDK2 occupancy after compound washout (%) (CDK2; Time (Min) 17.9723): 56.1571 and 50.7299 and 61.601 | CDK2 occupancy after compound washout (%) (CDK2; Time (Min) 20.9723): 52.6752 and 47.2263 and 57.3753 | CDK2 occupancy after compound washout (%) (CDK2; Time (Min) 23.9731): 49.9788 and 43.4307 and 53.9895 | CDK2 occupancy after compound washout (%) (CDK2; Time (Min) 26.9737): 47.0913 and 40.219 and 51.2336 | CDK2 occupancy after compound washout (%) (CDK2; Time (Min) 29.9742): 44.5011 and 36.91 and 47.9003 | CDK2 occupancy after compound washout (%) (CDK2; [1]): 42.1444 and 34.1363 and 45.2756 | CDK2 occupancy after compound washout (%) (CDK2; Time (Min) 35.9749): 39.724 and 31.4599 and 43.3596 | CDK2 occupancy after compound washout (%) (CDK2; Time (Min) 38.9753): 37.5584 and 29.5864 and 40.3675 | CDK2 occupancy after compound washout (%) (CDK2; Time (Min) 41.9753): 36.0722 and 27.129 and 39.4488 | CDK2 occupancy after compound washout (%) (CDK2; Time (Min) 44.9758): 33.3121 and 25.1582 and 36.6667 | CDK2 occupancy after compound washout (%) (CDK2; Time (Min) 47.9761): 31.6136 and 23.6253 and 35.2756 | CDK2 occupancy after compound washout (%) (CDK2; Time (Min) 50.9766): 29.9788 and 21.8978 and 32.9134 | CDK2 occupancy after compound washout (%) (CDK2; Time (Min) 53.9771): 27.983 and 20.1946 and 30.7874 | CDK2 occupancy after compound washout (%) (CDK2; Time (Min) 56.9772): 27.3885 and 18.0049 and 30.0525 | CDK2 occupancy after compound washout (%) (CDK2; Time (Min) 59.9777): 25.9023 and 17.2749 and 28.5564 | CDK2 occupancy after compound washout (%) (CDK2; Time (Min) 62.9781): 24.4161 and 15.8151 and 27.3753 | CDK2 occupancy after compound washout (%) (CDK2; Time (Min) 65.9785): 22.9299 and 14.3552 and 26.2992 | CDK2 occupancy after compound washout (%) (CDK2; Time (Min) 68.9792): 21.4437 and 13.6253 and 25.1706 | CDK2 occupancy after compound washout (%) (CDK2; Time (Min) 71.9792): 20.5945 and 12.1655 and 24.252 | CDK2 occupancy after 2 h of analysis following compound washout (CDK2; live cells, probe 1 at 1 µM): fully dissociated | CDK6 occupancy (%) over time after compound washout (CDK6; Time (Min) 0): 82.1951 and 85.1351 and 80.5402 | CDK6 occupancy (%) over time after compound washout (CDK6; Time (Min) 2.97013): 79.5935 and 83.3333 and 77.8966 | CDK6 occupancy (%) over time after compound washout (CDK6; Time (Min) 5.97045): 77.3984 and 80.6306 and 74.3678 | CDK6 occupancy (%) over time after compound washout (CDK6; Time (Min) 8.97078): 75.7724 and 78.2883 and 76.8161 | CDK6 occupancy (%) over time after compound washout (CDK6; Time (Min) 11.9714): 73.9024 and 76.5766 and 70.3448 | CDK6 occupancy (%) over time after compound washout (CDK6; Time (Min) 14.9718): 72.7642 and 74.3243 and 69.1954 | CDK6 occupancy (%) over time after compound washout (CDK6; Time (Min) 17.9723): 71.5447 and 72.4324 and 67.4713 | CDK6 occupancy (%) over time after compound washout (CDK6; Time (Min) 20.9723): 70.4878 and 71.2613 and 68.046 | CDK6 occupancy (%) over time after compound washout (CDK6; Time (Min) 23.9731): 69.0244 and 70.3604 and 68.6207 | CDK6 occupancy (%) over time after compound washout (CDK6; Time (Min) 26.9737): 68.8618 and 68.5586 and 67.4713 | CDK6 occupancy (%) over time after compound washout (CDK6; Time (Min) 29.9742): 67.3171 and 67.8378 and 66.8966 | CDK6 occupancy (%) over time after compound washout (CDK6; [1]): 67.6423 and 66.9369 and 67.1264 | CDK6 occupancy (%) over time after compound washout (CDK6; Time (Min) 35.9749): 67.2358 and 66.5766 and 66.0919 | CDK6 occupancy (%) over time after compound washout (CDK6; Time (Min) 38.9753): 66.8293 | CDK6 occupancy (%) over time after compound washout (CDK6; Time (Min) 236.996): 66.1789 and 64.7748 and 56.7816 | CDK6 occupancy (%) over time after compound washout (CDK6; Time (Min) 239.996): 65.6911 and 64.3243 and 56.5517 | CDK6 occupancy (%) over time after compound washout (CDK6; Time (Min) 242.996): 66.4228 and 63.0631 and 56.3218 | CDK6 occupancy (%) over time after compound washout (CDK6; Time (Min) 245.996): 65.6911 and 63.5135 and 59.5402 | CDK6 occupancy (%) over time after compound washout (CDK6; Time (Min) 248.996): 65.6911 and 63.0631 and 59.5402 | CDK6 occupancy (%) over time after compound washout (CDK6; Time (Min) 251.996): 65.7724 and 63.1531 and 61.6092 | CDK6 occupancy (%) over time after compound washout (CDK6; Time (Min) 254.996): 65.8537 and 64.3243 and 54.7126 | CDK6 occupancy (%) over time after compound washout (CDK6; Time (Min) 257.996): 64.9594 and 63.3333 and 57.7011 | CDK6 occupancy (%) over time after compound washout (CDK6; Time (Min) 260.996): 65.1219 and 63.8739 and 51.954 | CDK6 occupancy (%) over time after compound washout (CDK6; Time (Min) 263.996): 63.9024 and 63.4234 and 57.1264 | CDK6 occupancy (%) over time after compound washout (CDK6; [2]): 65.5285 and 63.1531 and 57.4713 | CDK6 occupancy (%) over time after compound washout (CDK6; Time (Min) 269.996): 64.7968 and 62.5225 and 59.6552 | CDK6 occupancy (%) over time after compound washout (CDK6; Time (Min) 272.996): 65.8537 and 62.5225 and 60.3448 | CDK6 occupancy (%) over time after compound washout (CDK6; Time (Min) 275.996): 64.3902 and 62.0721 and 53.3333 | CDK6 occupancy (%) over time after compound washout (CDK6; Time (Min) 278.996): 65.2032 and 62.6126 and 63.7931 | CDK6 occupancy (%) over time after compound washout (CDK6; Time (Min) 281.996): 64.8781 and 62.0721 and 57.7011 | CDK6 occupancy (%) over time after compound washout (CDK6; Time (Min) 284.996): 65.7724 and 63.3333 and 62.8736 | CDK6 occupancy (%) over time after compound washout (CDK6; Time (Min) 287.996): 63.5772 and 62.5225 and 61.3793 | CDK6 occupancy (%) over time after compound washout (CDK6; Time (Min) 290.996): 62.6016 and 62.5225 and 59.8851 | CDK6 occupancy (%) over time after compound washout (CDK6; Time (Min) 293.996): 64.5529 and 62.8829 and 61.8391
